Laboratory results from patent US20070248702A1, “Use of CB2 receptors agonists for the treatment of Huntington's disease” (priority 2004, published 2007).

Tests used:
[1] = tested on: rats with unilateral injections of malonate; assay: in situ hybridization of SOD-1 and SOD-2 mRNA, malonate rat model; format: in vivo; conditions: result in words, HU-308 5 mg/kg i.p.
Procedure: The protocol and results concerning possible sites of action are reported in Example 6.
(§1) Brain slicing. Coronal sections, 40 μm-thick, were cut in a cryostat, according to the Paxinos G. and Watson C. atlas (Rat brain in stereotaxic coordinates. Academic Press, London, 1986). Sections were thaw-mounted onto Superfrost Plus glass slides and dried briefly at 30° C. and stored at −80° C. until used.
Analysis of mRNA levels of NSE. Briefly, sections were fixed in 4% paraformaldehyde for 5 min and, after rinsing twice in PBS, were acetylated by incubation in 0.25% acetic anhydride, prepared in 0.1 M triethanolamine/0.15 M sodium chloride (pH 8.0), for 10 min. Sections were rinsed in 0.3 M sodium chloride/0.03 M sodium citrate, pH 7.0, dehydrated and delipidated by ethanol/chloroform series. For hybridization, the following synthetic probe of 45 nucleotides was used. […]
(§2) The oligonucleotide probe was labeled at the 3′-end with [^35S]-dATP using terminal deoxynucleotidyl-transferase. […] The intensity of the hybridization signal was assessed by measuring the grey levels in the films with a computer-assisted video densitometer. […]
Superoxide dismutase-1 and -2 (SOD-1 and SOD-2) were used as markers of endogenous antioxidant defenses. Their relative levels in lesioned vs. non-lesioned areas of malonate injected rats were measured by in situ hybridization. […]

[2] = tested on: mice treated with the neurotoxin MPTP; conditions: WO 03/064359; cited from earlier work
[3] = biological target: human CB1 receptors (Homo sapiens, UniProt P21554); conditions: read-out: IC50 human CB1 receptors; as disclosed in WO 03/064359; cited from earlier work
Sequence of human CB1 receptors (P21554 whole entry): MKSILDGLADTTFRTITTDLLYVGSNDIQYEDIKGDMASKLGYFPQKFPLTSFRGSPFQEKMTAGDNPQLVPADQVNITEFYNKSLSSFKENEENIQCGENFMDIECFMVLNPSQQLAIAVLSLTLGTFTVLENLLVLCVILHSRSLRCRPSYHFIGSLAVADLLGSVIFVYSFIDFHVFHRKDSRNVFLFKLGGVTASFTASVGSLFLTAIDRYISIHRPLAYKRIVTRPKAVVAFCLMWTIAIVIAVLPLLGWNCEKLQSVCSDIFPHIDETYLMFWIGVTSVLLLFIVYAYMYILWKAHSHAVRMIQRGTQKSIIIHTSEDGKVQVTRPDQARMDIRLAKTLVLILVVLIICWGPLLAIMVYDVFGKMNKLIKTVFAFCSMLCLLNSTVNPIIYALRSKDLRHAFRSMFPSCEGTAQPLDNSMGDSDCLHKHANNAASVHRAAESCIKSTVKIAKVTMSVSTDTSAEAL

[4] = tested on: rats with unilateral injections of malonate; assay: dopamine and DOPAC contents in caudate-putamen by HPLC, malonate rat model; format: in vivo; conditions: % of lesioned side over non-lesioned side, mean ± SEM; i.p. 30 min before and 2 h after malonate (ACEA 3 mg/kg, HU-308 5 mg/kg, CBD 5 mg/kg); 48 h
Procedure: (§3) Animals. Male Sprague-Dawley rats were housed in a room with controlled photoperiod (08:00-20:00 light) and temperature (23±1° C.). […] Each treatment group consisted of at least six animals.
(§4) Intrastriatal injection of malonate. Rats were injected stereotaxically (coordinates: +0.8 mm anterior, 2.9 mm lateral from the bregma, 4.5 mm ventral from the dura mater) into the left striatum with 2 M malonate in a volume of 1 μl and used for experimental analysis 48 h later.
(§5) Cannabinoid treatment. […] All compounds were prepared in Tween 80-saline solution (1:16 volume per volume). The volume dosage for i.p. administration was 2 ml/kg body weight. The doses used for each experiment were selected from the previous studies on the pharmacological properties of these compounds.
(§6) Animals were killed 46 hours after the second cannabinoid injection and their brains were rapidly removed and frozen in 2-methylbutane cooled in dry ice, and stored until evaluation of the degree of malonate-induced striatal injury.
(§7) Sample preparation. Brains coronal slices (around 500 μm thick) were made at levels containing the substantia nigra, the globus pallidus and the caudate-putamen, according to Palkovits M. and Brownstein J. (Maps and Guide to Microdissection of the Rat Brain. Elsevier, 1988). Subsequently, the three structures were dissected and homogenized in 20-40 volumes of cold 150 mM potassium phosphate buffer, pH 6.8. Each homogenate was distributed for the analysis of the contents of GABA or dopainine and its major metabolite, 3,4-dihydroxyphenylacetic acid (DOPAC), by High Performance Liquid Chromatography (HPLC) coupled to electrochemical detection, according to previously described methods (Romero J. et al., Brain Res. 694: 223-32, 1995; González S. et al., Life Sci. 65: 327-36, 1999). An aliquot of each homogenate was used to analyze protein concentration (Lowry O. H. et al., J. Biol. Chem. 193: 265-75, 1951).

[5] = tested on: rats with unilateral injections of malonate; assay: in situ hybridization of neuronal-specific enolase mRNA, malonate rat model; format: in vivo; conditions: FIG. 2, result in words; HU-308 5 mg/kg, CBD 5 mg/kg i.p.
Procedure: Animals were killed 46 hours after the second cannabinoid injection and their brains were rapidly removed and frozen in 2-methylbutane cooled in dry ice, and stored until evaluation of the degree of malonate-induced striatal injury. The protocol and results concerning the neurochemical evaluation of the neuronal injury and the effect of the various types of cannabinoids are reported in Example 2. The protocol and results concerning the effect of the various types of cannabinoids on the mRNA levels of neuron specific enolase are reported in Example 3.
as §1
Analysis of mRNA levels of NSE. Briefly, sections were fixed in 4% paraformaldehyde for 5 min and, after rinsing twice in PBS, were acetylated by incubation in 0.25% acetic anhydride, prepared in 0.1 M triethanolamine/0.15 M sodium chloride (pH 8.0), for 10 min. […]
as §2

[6] = tested on: rats with unilateral injections of malonate; assay: GABA contents in basal ganglia by HPLC, malonate rat model of Huntington's disease; format: in vivo; conditions: for GABA contents Globus pallidus / GABA contents Substantia nigra: % of lesioned side over non-lesioned side, mean ± SEM, i.p. 30 min before and 2 h after malonate (ACEA 3 mg/kg, HU-308 5 mg/kg, CBD 5 mg/kg), 48 h; for malonate-induced GABA loss in the striatum (caudate-putamen): FIG. 1, result in words, HU-308 5 mg/kg; for malonate-induced GABA loss in the striatum (caudate-putamen) / neurochemical deficits induced by malonate in the caudate-putamen and other basal ganglia structures: CBD 5 mg/kg i.p.; for neurochemical deficits induced by malonate in the caudate-putamen and other basal ganglia structures: Table 1 and FIG. 1, result in words, ACEA 3 mg/kg
Procedure: as §3, §4, §5, §6, §7
Analysis of GABA contents. This analysis was carried out by HPLC with electrochemical detection according to the procedure described by Smith S, and Sharp T. (J. Chromat. 652: 228-33, 1994). The aliquot of the homogenate used for the direct measurement of GABA content was diluted 1:2 with 0.4 N perchloric acid containing 0.4 mM sodium disulfite, 0.90 mM EDTA and 10 μg/ml β-aminobutyrate (BABA) as an internal standard. Following, samples were centrifuged for 3 min (15,000 g) and 50 μl of each supernatant removed and neutralized with 100 μl of 0.1 N NaOH. Samples were stored at 4° C. until analysis. This was performed by derivatization of GABA and BABA (β-aminobutyrate) through the addition of 15 μl of o-phthaldehyde (OPA)-sulfite solution (14.9 mM OPA, 45.4 mM sodium sulfite and 4.5% ethanol in 327 mM borate buffer, pH 10.4). Samples were allowed to react at room temperature for a period of 10 min. After this time, 20 μl of each reaction mixture (including derivatizated calibration standards composed of known concentrations of GABA and BABA) were injected into the HPLC system. The HPLC system consisted of the following elements. The pump was an isocratic Spectra-Physics 8810. The column was a RP-18 (Spherisorb ODS-2; 150 mm, 4.6 mm, 5 μm particle size; Waters, Mass., USA). The mobile phase, previously filtered and degassed, consisted of 0.06 M sodium dihydrogen phosphate, 0.06 mM EDTA and 20-30% methanol (pH 4.4) and the flow rate was 0.8 ml/min. The effluent was monitored with a Metrohm bioanalytical system amperometric detector using a glassy carbon electrode. The potential was 0.85V relative to an Ag/AgCl reference electrode with a sensitivity of 50 nA (approx. 2 ng per sample). The signal was recorded on a Spectra-Physics 4290 integrator. The approximate retention times for GABA and BABA were 8 and 16 min, respectively. […] Values were expressed as μg/mg of protein.

[7] = tested on: rats with unilateral lesions of the caudate-putamen generated by local application of malonate; conditions: Lastres-Becker et al., Neuroreport 14: 813-6, 2003; effects not dose-dependent; cited from earlier work
[8] = tested on: rats systemically exposed to 3-nitropropionic acid; conditions: Lastres-Becker et al., Neuroreport 15: 2375-9, 2004; cited from earlier work

| Compound | DA contents Caudate-putamen [4] [%] | DOPAC contents Caudate-putamen [4] [%] | mRNA levels for neuronal-specific enolase in the caudate-putamen [5] | GABA contents Globus pallidus [6] [%] | GABA contents Substantia nigra [6] [%] | malonate-induced GABA loss in the striatum (caudate-putamen) [6] | neurochemical deficits induced by malonate in the caudate-putamen and other basal ganglia structures [6] | effect on malonate toxicity [7] | other results |
| --- | --- | --- | --- | --- | --- | --- | --- | --- | --- |
| CCCCCCC(C)(C)c1cc(OC)c(C2C=C(CO)C3CC2C3(C)C)c(OC)c1 (single isomer, unassigned; (+)) [HU-308, (+){4-[4-(1,1-dimethylheptyl)-2,6-dimethoxyphenyl]-6,6-dimethyl-bicyclo[3.1.1]hept-2-en-2-yl}-methanol] | 34.1 ± 5.2 | 53.9 ± 5.7 | partially prevented the malonate-induced reduction | 90.1 ± 13.4 | 93.8 ± 7.7 | reduced malonate-induced GABA loss |  |  | mRNA levels for SOD-1 in the caudate-putamen ([1]; FIG. 5A): unable to prevent the malonate-induced decrease; mRNA levels for SOD-2 in the caudate-putamen ([1]; FIG. 5B): unable to prevent the malonate-induced decrease; cell death in the substantia nigra [2]: reduces the extent of cell death in the substantia nigra; IC50 [3]: 3.6 µM; GABA contents in the lesioned side ([6]; striatum, lesioned side, malonate + HU-308 5 mg/kg i.p.): 1.12±0.08 μg/mg of protein; GABA contents in the non-lesioned side ([6]; striatum, non-lesioned side, malonate + HU-308 5 mg/kg i.p.): 1.96±0.11 μg/mg of protein |
| CCCCC/C=C\C/C=C\C/C=C\C/C=C\CCCC(=O)NCCCl [ACEA, arachidonyl-2-chloroethylamide] | 23.8 ± 5.4 | 44.9 ± 9.7 |  | 61.1 ± 12.2 | 92.1 ± 5.2 |  | did not influence neurochemical deficits |  |  |
| C=C(C)[C@@H]1CCC(C)=C[C@H]1c1c(O)cc(CCCCC)cc1O [CBD, cannabidiol] | 12.6 ± 4.9 |  | totally inactive | 54.4 ± 8.2 | 86.3 ± 8.6 | slightly reduce the GABA depletion | lack of neuroprotectant effects |  |  |
| Cc1c(C(=O)NN2CCCCC2)nn(-c2ccc(Cl)cc2Cl)c1-c1ccc(Cl)cc1 [SR141716] |  |  |  |  |  |  |  | enhanced malonate toxicity |  |
| CCCCCc1cc(O)c2c(c1)OC(C)(C)[C@@H]1CCC(C)=C[C@@H]21 [Δ^9-THC, Δ^9-tetrahydrocannabinol] |  |  |  |  |  |  |  | pro-toxic | neuroprotection in 3-nitropropionic acid rats [8]: neuroprotectant |
| SR144528 |  |  |  |  |  |  |  |  | effect of co-administration on the HU-308 reduction of malonate-induced GABA depletion in the caudate-putamen ([6]; FIG. 3, SR144528 1 mg/kg i.p. with HU-308 5 mg/kg i.p.): completely reversed |
